Experimental data as given in patent publication US10897906B2, “Fungicide for the treatment of fungal pathogens causing mycotoxins” (priority 2015, dated 2021).

Experiments:
[1] = Contact angle of aqueous bicarbonate spray solution (Kruss DSA30, hydrophobic Para-film surface); format: physicochemical; settings: aqueous solutions at typical in-use concentrations (2-5% active ingredient)
Protocol: (§1) In this application surface tension and contact angle were measured using a Kruss DSA30 system, […] was measured using a pendant drop technique with analysis carried out after application of the Laplace-Young equation, […] was measured following application of a droplet on to an artificial hydrophobic (Para-film) surface. The particle sizes of the crystals of the bicarbonate salt were determined by microscopy following the application of Motic Advanced Imaging Software.

[2] = Surface tension of aqueous bicarbonate spray solution (Kruss DSA30); format: physicochemical; settings: aqueous solutions at typical in-use concentrations (2-5% active ingredient)
Protocol: as §1

**Q.** With `O=C([O-])O.[K+]` [potassium bicarbonate] as the compound, how does the “Contact angle with the plant tissues compared with water” value [1] read?
**A.** The value was “virtually identical to that achieved with water alone”.

**Q.** And the “Surface tension compared with water” value [2]?
**A.** The value was “virtually identical to that achieved with water alone”.
